Measurements taken from publication PMC10004634 (PLOS ONE, 2023).
Read-outs that look alike come from different tables or passages of the source.

Experiments:
Assay in all cases: biochemical
Design in all cases: KINOMEscan scanMAX competition binding, DNA-tagged kinases, qPCR read-out, percent control at 300 nM
[1] = molecular target: T1, AURKC (Homo sapiens, UniProt Q9UQB9)
T1 sequence (Q9UQB9 1-309): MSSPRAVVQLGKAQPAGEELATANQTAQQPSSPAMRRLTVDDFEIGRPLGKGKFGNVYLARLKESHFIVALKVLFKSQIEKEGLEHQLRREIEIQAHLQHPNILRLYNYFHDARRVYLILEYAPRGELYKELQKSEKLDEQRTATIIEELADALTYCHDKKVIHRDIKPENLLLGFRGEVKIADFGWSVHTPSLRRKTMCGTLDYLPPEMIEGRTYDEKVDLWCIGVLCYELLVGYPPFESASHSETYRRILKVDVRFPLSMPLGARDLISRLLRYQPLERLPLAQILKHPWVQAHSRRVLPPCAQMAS

[2] = molecular target: CAMK1D (Homo sapiens, UniProt Q8IU85)
[3] = molecular target: T2, CDK11 (Homo sapiens, UniProt Q9BWU1)
T2 construct: gene CDK19

[4] = molecular target: T3, IKK-epsilon (Homo sapiens, UniProt Q14164)
T3 construct: gene IKBKE
T3 sequence (Q14164 1-716): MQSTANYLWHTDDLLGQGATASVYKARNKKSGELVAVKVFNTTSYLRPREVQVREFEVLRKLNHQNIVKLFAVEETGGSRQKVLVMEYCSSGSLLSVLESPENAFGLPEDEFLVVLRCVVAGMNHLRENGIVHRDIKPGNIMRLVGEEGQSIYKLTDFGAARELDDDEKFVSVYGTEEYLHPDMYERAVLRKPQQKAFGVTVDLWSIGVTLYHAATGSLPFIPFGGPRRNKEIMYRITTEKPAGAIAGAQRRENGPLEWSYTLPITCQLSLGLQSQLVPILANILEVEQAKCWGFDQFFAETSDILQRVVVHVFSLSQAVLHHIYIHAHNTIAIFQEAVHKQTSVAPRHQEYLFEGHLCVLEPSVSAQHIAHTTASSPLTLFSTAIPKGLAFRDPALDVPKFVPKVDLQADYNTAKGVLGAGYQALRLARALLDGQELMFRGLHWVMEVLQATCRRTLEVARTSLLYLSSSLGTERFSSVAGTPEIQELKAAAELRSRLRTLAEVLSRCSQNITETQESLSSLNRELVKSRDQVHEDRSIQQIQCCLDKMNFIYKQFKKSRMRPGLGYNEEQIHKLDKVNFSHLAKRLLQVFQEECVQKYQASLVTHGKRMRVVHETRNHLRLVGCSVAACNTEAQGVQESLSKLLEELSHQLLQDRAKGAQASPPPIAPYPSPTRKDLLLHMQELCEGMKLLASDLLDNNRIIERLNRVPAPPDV

[5] = molecular target: KIT (Homo sapiens, UniProt P10721)
[6] = molecular target: KIT(D816H) (Homo sapiens, UniProt P10721, D816H)
[7] = molecular target: MELK (Homo sapiens, UniProt Q14680)
[8] = molecular target: T4, NEK2 (Homo sapiens, UniProt P51955)
T4 sequence (P51955 1-445): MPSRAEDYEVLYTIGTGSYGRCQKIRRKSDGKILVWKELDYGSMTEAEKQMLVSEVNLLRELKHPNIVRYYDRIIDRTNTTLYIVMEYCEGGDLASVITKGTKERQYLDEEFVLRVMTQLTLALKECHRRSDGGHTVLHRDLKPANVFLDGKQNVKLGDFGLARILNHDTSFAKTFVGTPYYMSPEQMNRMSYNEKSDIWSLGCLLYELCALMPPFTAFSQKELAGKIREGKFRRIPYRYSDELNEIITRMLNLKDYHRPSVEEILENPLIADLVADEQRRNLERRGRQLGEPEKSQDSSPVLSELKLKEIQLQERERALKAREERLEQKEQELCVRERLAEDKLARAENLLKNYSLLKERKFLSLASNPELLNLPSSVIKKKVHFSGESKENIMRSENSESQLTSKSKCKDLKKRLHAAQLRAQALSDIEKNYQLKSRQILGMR

[9] = molecular target: T5, PFTAIRE2 (Homo sapiens, UniProt Q96Q40)
T5 construct: gene CDK15

[10] = read-out: Percent control / Acalabrutinib
[11] = read-out: Percent control / Ibrutinib
[12] = read-out: Percent control / Tirabrutinib
[13] = read-out: Percent control / Zanubrutinib

Chain of CAMK1D (Q8IU85 whole entry): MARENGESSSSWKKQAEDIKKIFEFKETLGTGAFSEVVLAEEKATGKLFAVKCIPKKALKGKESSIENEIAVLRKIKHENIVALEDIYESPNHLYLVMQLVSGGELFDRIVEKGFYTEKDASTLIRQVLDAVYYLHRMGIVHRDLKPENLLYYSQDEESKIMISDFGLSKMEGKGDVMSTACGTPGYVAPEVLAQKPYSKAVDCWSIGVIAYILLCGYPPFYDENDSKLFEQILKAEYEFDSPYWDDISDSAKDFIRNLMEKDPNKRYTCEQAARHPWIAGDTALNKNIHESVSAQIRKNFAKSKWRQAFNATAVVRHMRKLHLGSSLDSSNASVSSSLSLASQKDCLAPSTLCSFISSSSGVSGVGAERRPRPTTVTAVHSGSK
T5 sequence (Q96Q40 whole entry): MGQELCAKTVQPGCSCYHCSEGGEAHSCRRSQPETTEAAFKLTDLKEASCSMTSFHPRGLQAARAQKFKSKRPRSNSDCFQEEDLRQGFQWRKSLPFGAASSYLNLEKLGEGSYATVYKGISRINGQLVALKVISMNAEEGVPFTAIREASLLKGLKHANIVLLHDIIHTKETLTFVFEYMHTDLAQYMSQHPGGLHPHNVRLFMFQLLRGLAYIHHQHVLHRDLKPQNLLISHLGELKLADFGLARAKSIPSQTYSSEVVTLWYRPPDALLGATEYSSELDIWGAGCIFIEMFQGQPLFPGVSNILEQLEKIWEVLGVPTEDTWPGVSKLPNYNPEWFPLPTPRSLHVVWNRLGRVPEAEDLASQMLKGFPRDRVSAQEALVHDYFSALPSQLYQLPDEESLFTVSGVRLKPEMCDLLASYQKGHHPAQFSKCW
Chain of KIT (P10721 whole entry): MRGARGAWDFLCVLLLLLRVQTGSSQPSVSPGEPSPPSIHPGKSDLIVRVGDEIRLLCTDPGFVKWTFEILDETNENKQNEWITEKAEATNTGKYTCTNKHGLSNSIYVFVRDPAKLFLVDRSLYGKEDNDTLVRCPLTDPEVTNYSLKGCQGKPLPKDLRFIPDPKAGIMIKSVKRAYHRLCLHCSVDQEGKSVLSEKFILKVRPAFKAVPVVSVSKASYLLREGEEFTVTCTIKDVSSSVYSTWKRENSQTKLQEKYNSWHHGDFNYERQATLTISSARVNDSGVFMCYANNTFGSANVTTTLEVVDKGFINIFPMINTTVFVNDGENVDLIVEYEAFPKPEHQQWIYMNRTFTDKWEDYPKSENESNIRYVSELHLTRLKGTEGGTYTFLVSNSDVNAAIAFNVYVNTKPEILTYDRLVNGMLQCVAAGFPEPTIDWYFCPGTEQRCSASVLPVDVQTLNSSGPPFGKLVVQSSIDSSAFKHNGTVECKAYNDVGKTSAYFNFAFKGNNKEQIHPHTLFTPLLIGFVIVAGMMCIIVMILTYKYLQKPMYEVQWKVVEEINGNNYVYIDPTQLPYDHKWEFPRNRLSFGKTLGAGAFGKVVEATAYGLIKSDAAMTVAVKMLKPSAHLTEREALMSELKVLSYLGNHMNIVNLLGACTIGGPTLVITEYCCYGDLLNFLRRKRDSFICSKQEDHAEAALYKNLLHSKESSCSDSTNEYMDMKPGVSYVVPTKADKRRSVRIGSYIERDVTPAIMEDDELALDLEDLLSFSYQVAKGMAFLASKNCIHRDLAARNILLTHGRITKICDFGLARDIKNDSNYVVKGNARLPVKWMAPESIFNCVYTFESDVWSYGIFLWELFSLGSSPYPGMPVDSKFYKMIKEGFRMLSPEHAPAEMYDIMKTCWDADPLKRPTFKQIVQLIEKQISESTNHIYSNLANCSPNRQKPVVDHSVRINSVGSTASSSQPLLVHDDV
T2 sequence (Q9BWU1 whole entry): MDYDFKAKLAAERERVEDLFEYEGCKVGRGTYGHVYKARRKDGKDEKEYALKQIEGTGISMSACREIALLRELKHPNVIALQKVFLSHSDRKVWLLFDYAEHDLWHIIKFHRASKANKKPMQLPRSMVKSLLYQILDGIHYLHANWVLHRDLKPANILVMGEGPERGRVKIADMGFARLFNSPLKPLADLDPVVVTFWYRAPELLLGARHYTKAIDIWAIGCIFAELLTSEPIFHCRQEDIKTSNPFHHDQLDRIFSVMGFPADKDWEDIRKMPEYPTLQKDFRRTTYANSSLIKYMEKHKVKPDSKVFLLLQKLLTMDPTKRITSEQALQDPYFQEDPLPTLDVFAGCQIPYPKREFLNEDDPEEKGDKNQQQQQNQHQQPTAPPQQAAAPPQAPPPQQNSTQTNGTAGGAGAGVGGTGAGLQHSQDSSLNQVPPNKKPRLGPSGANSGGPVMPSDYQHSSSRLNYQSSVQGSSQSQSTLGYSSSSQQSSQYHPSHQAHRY
Chain of KIT(D816H) (P10721 whole entry D816H): as the sequence (P10721 whole entry) above, with D816H counted along it
Chain of MELK (Q14680 whole entry): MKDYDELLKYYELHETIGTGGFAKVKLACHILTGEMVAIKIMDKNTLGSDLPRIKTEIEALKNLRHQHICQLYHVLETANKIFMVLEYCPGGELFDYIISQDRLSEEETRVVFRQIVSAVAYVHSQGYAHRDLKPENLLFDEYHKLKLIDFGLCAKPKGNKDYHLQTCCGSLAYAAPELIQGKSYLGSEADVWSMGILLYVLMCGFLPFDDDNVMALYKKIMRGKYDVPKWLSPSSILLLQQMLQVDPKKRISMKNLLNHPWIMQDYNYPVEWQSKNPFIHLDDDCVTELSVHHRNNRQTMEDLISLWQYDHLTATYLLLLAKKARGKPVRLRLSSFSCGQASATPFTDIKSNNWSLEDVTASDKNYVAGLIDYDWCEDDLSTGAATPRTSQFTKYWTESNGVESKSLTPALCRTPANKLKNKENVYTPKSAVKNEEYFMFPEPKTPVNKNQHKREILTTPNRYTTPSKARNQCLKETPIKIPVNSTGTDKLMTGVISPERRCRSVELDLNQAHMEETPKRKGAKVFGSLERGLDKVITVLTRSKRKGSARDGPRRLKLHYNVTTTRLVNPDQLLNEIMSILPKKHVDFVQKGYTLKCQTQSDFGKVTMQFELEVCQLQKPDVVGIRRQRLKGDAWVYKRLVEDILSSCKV

With `CC#CC(=O)N1CCC[C@H]1c1nc(-c2ccc(C(=O)Nc3ccccn3)cc2)c2c(N)nccn12` [Acalabrutinib] the remaining binding at 0.3 µM [1, 10] was 64%, the remaining binding at 0.3 µM [2, 10] was 71% and the remaining binding at 0.3 µM [3, 10] was 74%. The remaining binding at 0.3 µM [4, 10] was 76%, the remaining binding at 0.3 µM [5, 10] was 91% and the remaining binding at 0.3 µM [6, 10] was 82%. The remaining binding at 0.3 µM [7, 10] was 81%, the remaining binding at 0.3 µM [8, 10] was 95% and the remaining binding at 0.3 µM [9, 10] was 82%.
Compound `C=CC(=O)N1CCC[C@@H](n2nc(-c3ccc(Oc4ccccc4)cc3)c3c(N)ncnc32)C1` [Ibrutinib] has a remaining binding at 0.3 µM [1, 11] of 54%, a remaining binding at 0.3 µM [2, 11] of 97% and a remaining binding at 0.3 µM [3, 11] of 81%. For the same compound, the remaining binding at 0.3 µM [4, 11] was 83%, the remaining binding at 0.3 µM [7, 11] was 74% and the remaining binding at 0.3 µM [8, 11] was 84%. For the same compound, the remaining binding at 0.3 µM [9, 11] was 89%.
`CC#CC(=O)N1CC[C@@H](n2c(=O)n(-c3ccc(Oc4ccccc4)cc3)c3c(N)ncnc32)C1` [Tirabrutinib] showed a remaining binding at 0.3 µM [1, 12] of 65%, a remaining binding at 0.3 µM [2, 12] of 99% and a remaining binding at 0.3 µM [3, 12] of 93%. The remaining binding at 0.3 µM [4, 12] was 92%, the remaining binding at 0.3 µM [5, 12] was 91% and the remaining binding at 0.3 µM [6, 12] was 84%. The remaining binding at 0.3 µM [7, 12] was 82%, the remaining binding at 0.3 µM [8, 12] was 93% and the remaining binding at 0.3 µM [9, 12] was 99%.
Compound `C=CC(=O)N1CCC([C@@H]2CCNc3c(C(N)=O)c(-c4ccc(Oc5ccccc5)cc4)nn32)CC1` [Zanubrutinib] has a remaining binding at 0.3 µM [1, 13] of 97%, a remaining binding at 0.3 µM [2, 13] of 81% and a remaining binding at 0.3 µM [3, 13] of 83%. It also gave a remaining binding at 0.3 µM [4, 13] of 100%, a remaining binding at 0.3 µM [5, 13] of 100% and a remaining binding at 0.3 µM [6, 13] of 96%. The remaining binding at 0.3 µM [7, 13] was 59% and the remaining binding at 0.3 µM [8, 13] was 90%.
